We go through 14 molecules from article PMC3473092 (Science (New York, N.Y.), 2011).

One data set relates to P. berghei sporozoites. The data set is described as follows: Rodent malaria model of causal prophylactic treatment. The class given is in vivo, Plasmodium berghei. The note with it: for blood stage parasitemia in later blood smear examinations / in vivo bioluminescence signal of developing parasite: GNF179 15 mg/kg, atovaquone 2.5 mg/kg, treated at 6 hpi, Fig. 2D.
For data set [1], the system named is P. falciparum blood stages. The data set is described as follows: P. falciparum blood stage cultures in vitro. In kind it is cell-based, Plasmodium falciparum. The note with it: text b23, strain not given.
The subject of data set [2] is Plasmodium berghei. The note with it: 100 mg/kg oral dose; cited from earlier work.
The test system of the next data set is P. yoelii EEF. The data set is described as follows: P. yoelii liver-stage. The class given is cell-based, Plasmodium yoelii. The note with it: for activity against EEFs (in words): P. yoelii liver assay; for Median parasite area: ±SD, DMSO control 160 to 180 μm^2, smallest size detected 9 μm^2; for IC50: Plasmodium yoelii, 48 h, read-out: P. yoelii EEF IC50; for efficacy when compound added 15 and 27 hours post-invasion: end-point 51 hpi, Fig. 2C.

A further data set relates to HepG2-A16-CD81EGFP cells. The data set is described as follows: HepG2-A16-CD81EGFP inhibition. The note with it: Homo sapiens, HepG2, read-out: HepG2 inhibition IC50. The class given is cell-based.
For data set [3], the system named is P. falciparum W2 parasites. The data set is described as follows: Blood-stage SYBR green assay, P. falciparum W2. The class given is cell-based. As to conditions: Plasmodium falciparum, W2, read-out: Blood IC50.
Data set [4] has as its system Plasmodium berghei. The data set is described as follows: P. berghei blood-stage mouse model, single oral dose. In kind it is in vivo. The note with it: for average survival times: mice infected with P. berghei, single oral dose at 100 mg/kg.
For data set [5] the following is noted: mouse, in vivo, po.
For data set [6], the system named is parasite protein biosynthesis. The data set is described as follows: Parasite protein biosynthesis inhibition. The note with it: Fig. S4. In kind it is cell-based.
The test system of data set [7] is strains having mutations making them resistant to atovaquone and pyrimethamine. The data set is described as follows: Cross-resistance with strains resistant to liver-stage drugs. As to conditions: Table S6. The class given is cell-based.
The conditions of data set [8]: mouse.
[9] abbreviates: 15 p.o. mg/kg, 1–3 hours prior to sporozoite injection.
Where [10] appears, read: 30 p.o. mg/kg, 1–3 hours prior to sporozoite injection.
The mark [11] stands for this setting: 5 p.o. mg/kg, 1–3 hours prior to sporozoite injection.
[12] abbreviates: 15 p.o. mg/kg, six hours after infection.

Entries after “also recorded” stand apart in the source; their conditions may differ. Like-named read-outs stand apart in the source and are kept apart here.

Regarding `C[C@H]1Cc2c([nH]c3cc(Cl)c(F)cc23)[C@@]2(N1)C(=O)Nc1ccc(Cl)cc12` [NITD609], in the data set on P. berghei sporozoites (setting [9]), the “Average Survival (%)” value came out at 0% and the “Prepatent Period” value is listed as 4.5 days. Besides, in the data set on P. berghei sporozoites (setting [10]), the “Average Survival (%)” value was determined as 0% and the “Prepatent Period” value is given as 4.2 days. In addition, in data set [1], the “potency against P. falciparum blood stages” value is ~ 1 nM. Further, the “cure in a blood-stage animal model” value with Plasmodium berghei [2] is on record as “fully curative”. Also, the “activity against EEFs (in words)” value in the data set on P. yoelii EEF was “inactive”.
As to `OC(c1cc(C(F)(F)F)nc2c(C(F)(F)F)cccc12)C1CCCCN1` (stereo not shown) [Mefloquine], the IC50 worked out at 3100 ± 600 nM in the data set with HepG2-A16-CD81EGFP cells, 9.5 ± 10 nM in data set [3] and 3270 nM in the data set with P. yoelii EEF. The Median parasite area with P. yoelii EEF (1 μM) was 65.4±4.7 μm^2; in the data set with P. yoelii EEF (10 μM), < 9 μm^2. Further, the “activity against EEFs (in words)” value in the data set on P. yoelii EEF is recorded as “marginal activity”.
Consider `C[C@@H]1C[C@@H]([C@H](O)CC2CC(=O)NC(=O)C2)C(=O)[C@@H](C)C1` [Cycloheximide], for which the figures for the IC50 (with HepG2-A16-CD81EGFP cells; in [3]) were 220 ± 100 nM and 366 ± 69 nM, respectively. Besides, the Median parasite area with P. yoelii EEF (1 μM) and with P. yoelii EEF (10 μM) was <9 μm^2 each time.
Regarding `CCN(CC)CCCC(C)Nc1ccnc2cc(Cl)ccc12` (stereo not shown) [Chloroquine], the IC50 in the data set with HepG2-A16-CD81EGFP cells turned out to be 1600 ± 300 nM; in [3], 84 ± 3 nM; in the data set on P. yoelii EEF, 1650 nM. Moreover, the average survival times in the data set on Plasmodium berghei [4] amounted to 12.5 days. The Median parasite area in the data set on P. yoelii EEF (1 μM) is 65.4±9.5 μm^2; with P. yoelii EEF (10 μM), < 9 μm^2.
Consider `COc1ccc2cc3[n+](cc2c1OC)CCc1cc2c(cc1-3)OCO2` [Berberine], for which the IC50 was 2600 ± 500 nM in the data set with HepG2-A16-CD81EGFP cells, 117 ± 9 nM in data set [3] and 224 ± 152 nM with P. yoelii EEF. Besides, the Median parasite area worked out at 46.4±7.0 μm^2 in the data set with P. yoelii EEF (1 μM) and 22.4±2.3 μm^2 in the data set on P. yoelii EEF (10 μM). In addition, in the data set on P. yoelii EEF, the “activity against EEFs (in words)” value is given as “confirmed as active”.
Consider `C[C@@H]1CC[C@H]2[C@@H](C)C(=O)O[C@@H]3O[C@@]4(C)CC[C@@H]1[C@]32OO4` [Artemisinin], for which the IC50 with HepG2-A16-CD81EGFP cells is > 10000 nM; in data set [3] it was 3.3 ± 0.4 nM; in the data set on P. yoelii EEF, > 10000 nM. Moreover, the “activity against EEFs (in words)” value with P. yoelii EEF is “inactive”.
In data set [5] (15 mg/kg), GNF179 had a Cmax of 55 µM. Besides, in data set [5] (100 mg/kg), the Cmax came to 193 µM and the half-life in liver lay in the range of 7 to 9 h. Also, in the data set on P. berghei sporozoites (setting [11]), the “Average Survival (%)” value was determined as 20% and the “Prepatent Period” value was 4.2 days. In addition, in the data set with P. berghei sporozoites (setting [9]), the “Average Survival (%)” value came out at 100%. Also, in the data set with P. berghei sporozoites (setting [12]), the “Average Survival (%)” value stood at 80% and the “Prepatent Period” value stood at 6.2 days. In addition, the “Average Survival (%)” value with P. berghei sporozoites (20 p.o. mg/kg, 1–3 hours prior to sporozoite injection) came to 100%. In addition, in the data set on P. berghei sporozoites, the “blood stage parasitemia in later blood smear examinations” value is recorded as “no blood stage parasitemia was detected” and the “in vivo bioluminescence signal of developing parasite” value is “No luminescence signal was detected”. Moreover, the “potency against P. falciparum blood stages” value in [1] came out at 7 nM. In addition, in data set [6], the “inhibition of parasite protein biosynthesis” value is on record as “does not rapidly inhibit parasite protein biosynthesis”. In addition, the cross-resistance result in [7] is listed as “no cross-resistance”. For the same molecule, the “mouse survival prolonged by an average of” value in the data set with Plasmodium berghei [4] (single 100 mg/kg oral dose) stood at 19 days. Moreover, the “reduction of Plasmodium berghei parasitemia levels” value in the data set with Plasmodium berghei [4] (single 100 mg/kg oral dose, mice) is 99.7%. Further, in data set [8] (in vivo), the “clearance CL” value came out at 22 mL/min/kg, the “clearance as share of hepatic blood flow in mice” value is ~ 25%, the “residence time MRT” value is 9 h and the “steady-state volume of distribution Vss” value was found to be 11.8 L/kg. Moreover, the “terminal half-life t1/2” value in [8] (in vivo) was 8.9 h. The “in vivo oral bioavailability” value in [8] (po) worked out at 58%. In the data set on P. yoelii EEF (1 μM), the “efficacy when compound added 15 and 27 hours post-invasion” value (“efficacy” below) is reported as “remained active later in EEF development”.
Turning to `O=C1C(O)=C([C@H]2CC[C@H](c3ccc(Cl)cc3)CC2)C(=O)c2ccccc21` [Atovaquone], the “Average Survival (%)” value was found to be 100% with P. berghei sporozoites (2.5 p.o. mg/kg, 1–3 hours prior to sporozoite injection) and 100% in the data set on P. berghei sporozoites (2.5 p.o. mg/kg, six hours after infection). The “blood stage parasitemia in later blood smear examinations” value in the data set with P. berghei sporozoites is given as “no blood stage parasitemia was detected”. Besides, the “in vivo bioluminescence signal of developing parasite” value in the data set on P. berghei sporozoites is listed as “No luminescence signal was detected”. Further, the IC50 in the data set on HepG2-A16-CD81EGFP cells worked out at 9500 ± 2500 nM; in data set [3], 2.2 ± 0.4 nM; in the data set on P. yoelii EEF it was 9.4 ± 15 nM. Besides, in the data set on P. yoelii EEF (1 μM), the “efficacy” value was “remained active later in EEF development”. Besides, the results for the Median parasite area with P. yoelii EEF (1 μM) and with P. yoelii EEF (10 μM) were 18.2±1.0 μm^2 and 18.6±1.0 μm^2, respectively. Further, the “activity against EEFs (in words)” value in the data set on P. yoelii EEF is recorded as “confirmed as active”.
`CC[C@@H](C(=O)[C@@H](C)[C@@H](O)[C@H](C)CCc1ccc(C)c(O)c1C(=O)O)[C@H]1O[C@](CC)([C@H]2CC[C@](O)(CC)[C@H](C)O2)C[C@@H]1C` [Lasalocid]: the values for the IC50 (in the data set on HepG2-A16-CD81EGFP cells; in [3]; with P. yoelii EEF) were 3900 ± 1400 nM, 50 ± 8 nM and 37 ± 20 nM, respectively. Further, the “efficacy” value with P. yoelii EEF (1 μM) is listed as “remained active later in EEF development”. Moreover, the Median parasite area with P. yoelii EEF (1 μM) and in the data set on P. yoelii EEF (10 μM) was < 9 μm^2 throughout. Besides, in the data set on P. yoelii EEF, the “activity against EEFs (in words)” value is given as “confirmed as active”.
Turning to `CCCCCCCCCCOc1cc2c(O)c(C(=O)OCC)cnc2cc1OCC` [Decoquinate], the IC50 in the data set on HepG2-A16-CD81EGFP cells was > 10000 nM; in [3], 0.25 ± 0.06 nM; with P. yoelii EEF, 0.16 ± 0.02 nM. Also, the Median parasite area in the data set with P. yoelii EEF (1 μM) is listed as 17.7±0.3 μm^2; with P. yoelii EEF (10 μM), 18.8±4.7 μm^2.
In the data set with Plasmodium berghei [4], `C[C@H]1[C@H](OC(=O)CCC(=O)O)O[C@@H]2O[C@@]3(C)CC[C@H]4[C@H](C)CC[C@@H]1[C@@]24OO3` [artesunate] registered an average survival times of 7 days.
Take `COc1cc(NC(C)CCCN)c2ncccc2c1` (stereo not shown) [Primaquine]: the IC50 in the data set with HepG2-A16-CD81EGFP cells was found to be 6100 ± 1900 nM; in data set [3], 317 ± 60 nM; in the data set on P. yoelii EEF it was 1160 nM. For the same molecule, the Median parasite area in the data set with P. yoelii EEF (1 μM) is on record as 56.8±15.6 μm^2; in the data set with P. yoelii EEF (10 μM), < 9 μm^2. For the same molecule, the “activity against EEFs (in words)” value with P. yoelii EEF was “confirmed as active”.
For `CO[C@@H]1C(=O)CC[C@]2(CO2)[C@@]1(O)[C@@]1(C)O[C@@H]1CC=C(C)C` [Ovalicin], the IC50 in the data set on HepG2-A16-CD81EGFP cells is > 10000 nM; in data set [3], > 10000 nM; in the data set with P. yoelii EEF, 0.7 ± 0.3 nM. Also, the results for the Median parasite area with P. yoelii EEF (1 μM) and in the data set with P. yoelii EEF (10 μM) were 35.1±3.1 μm^2 and 19.1±0.9 μm^2, respectively. For the same molecule, the “effect on the infection ratio” value in the data set on P. yoelii EEF (Fig. 1E) was “no drug effect is seen; also recorded: no measurable effect”. In addition, the “activity against EEFs (in words)” value with P. yoelii EEF was “confirmed as active”.
For `CCc1nc(N)nc(N)c1-c1ccc(Cl)cc1` [Pyrimethamine], the values for the IC50 (in the data set on HepG2-A16-CD81EGFP cells; in data set [3]; in the data set on P. yoelii EEF) were 6300 ± 3300 nM, 15 ± 2 nM and 2.4 ± 1.6 nM, respectively. Also, the “efficacy” value in the data set with P. yoelii EEF (1 μM) is reported as “the parasites grew to normal size”. Besides, the Median parasite area in the data set with P. yoelii EEF (1 μM) is reported as 31.1±0.7 μm^2; in the data set with P. yoelii EEF (10 μM), 29.6±2.0 μm^2. Moreover, the “activity against EEFs (in words)” value in the data set with P. yoelii EEF was “confirmed as active”.
